Results reported in patent US10183014B2, “Ocular formulations for drug-delivery and protection of the anterior segment of the eye” (PanOptica, Inc., priority 2014, dated 2019).
Values joined by “and” are separate entries in the source; they are usually repeats but may differ in a detail not shown here. Equal entries are not always repeated. Where two headings read alike, the source gives them in different places.

Legend:
[1] = molecular target: LYN A (Homo sapiens, UniProt P07948); assay: In vitro inhibition of tyrosine kinases; assay type: biochemical; conditions: read-out: Mean % Inhibition at 1 μM Compound-I; 1 μM (568.9 ng/mL)
[2] = 5-day PK with topical ocular Compound-I in cyclodextrin-based solutions (Example 6); assay type: in vivo, Dutch-Belted rabbits; conditions: HPβCD solutions; for concentration at 1 h: q.d. groups (4, 5a, 6a, 7, 8, 11, 12), 4 days, 1 hr after first daily dose day 5
Description: All doses were administered with ±1 hour of the scheduled dose time, except on day 1 for Groups 1, 4, and 10. The first dose on day 1 was administered at 12:00 PM, and the second dose (for Groups 1 and 10) was administered approximately 4 hours after. This was due to delayed arrival of formulations. All other dosing for these groups was as scheduled. On day 1, Groups 4-8, and 11-12 received one dose (q.d.) for four (4) days. On days 1 through 4, Groups 1-3, and 9-10 received b.i.d. dosing approximately 8 hours apart for four (4) days.
Ocular sampling occurred one hour following the first daily dose on day 5 for all groups, except Groups 5b and 6b, where ocular sampling occurred 24 hours after the first daily dose on day 4.
Blood samples for plasma collection were obtained just prior to scheduled euthanasia for all animals. […] Cornea, central retina, and central choroid samples from groups 1-12 were assayed. Aqueous humor, peripheral retina, and peripheral choroid samples were not assayed.

[3] = test system: human tumor xenographs; assay: Growth of human tumor xenographs in athymic mice; assay type: in vivo; conditions: systemic administration
[4] = molecular target: MINK1 (Homo sapiens, UniProt Q8N4C8); assay: In vitro inhibition of tyrosine kinases; assay type: biochemical; conditions: read-out: Mean % Inhibition at 1 μM Compound-I; 1 μM (568.9 ng/mL)
[5] = Particle size distribution by laser diffraction light scattering; assay type: physicochemical; conditions: API form HCl salt
Description: Particle size distribution can be analyzed using laser diffraction light scattering, e.g., with a Horiba LA-950 V2. Generic assumptions are made in setting conditions and the refractive index value. The distributions are volume based. Sample density is adjusted to a generic range of percent transmission on the blue LED light source. A small sample cell (filled with water) can be used rather than the flow through cell, to minimize sample quantity.
Particle size distribution was analyzed using laser diffraction light scattering with a Horiba LA-950 V2. Generic assumptions were made in setting conditions and the refractive index value. The distributions were volume based. Sample density was adjusted to a generic range of percent transmission on the blue LED light source. A small sample cell (filled with water) was used rather than the flow through cell, to minimize sample quantity.

[6] = molecular target: PDGFRA T674I (Homo sapiens, UniProt P16234, T674I); assay: In vitro inhibition of tyrosine kinases; assay type: biochemical; conditions: read-out: Mean % Inhibition at 1 μM Compound-I; 1 μM (568.9 ng/mL)
[7] = molecular target: KDR (VEGFR-2) (Homo sapiens, UniProt P35968); assay: In vitro inhibition of tyrosine kinases; assay type: biochemical; conditions: 300 nM (170.67 ng/mL)
[8] = Ocular toxicology studies (tolerability and ocular tissue concentrations); assay type: in vivo, Dutch-Belted rabbits; conditions: for concentration at 29 days: Dutch-Belted, topical, 0.3 %, 0.3% Ophthalmic Gel Drop (with and without benzylalkonium chloride), twice daily
From the text: Retinal function was normal in all test article and vehicle treated groups during full-field electroretinograms performed in rabbits.

[9] = test system: retinal and choroidal neovascularization; assay: Pathologic retinal and choroidal neovascularization, rodent models, topical ocular delivery; assay type: in vivo
[10] = molecular target: ABL1 T315I (Homo sapiens, UniProt P00519, T315I); assay: In vitro inhibition of tyrosine kinases; assay type: biochemical; conditions: read-out: Mean % Inhibition at 1 μM Compound-I; 1 μM (568.9 ng/mL)
[11] = molecular target: EPHB-1 (Homo sapiens, UniProt P54762); assay: In vitro inhibition of tyrosine kinases; assay type: biochemical; conditions: read-out: Mean % Inhibition at 1 μM Compound-I; 1 μM (568.9 ng/mL)
[12] = PK with topical ocular Compound-I in sodium phosphate-based Gel Drop; assay type: in vivo, Dutch-Belted rabbits; conditions: Dutch-Belted, rabbit, Gel Drop 6 mg/ml, 3x per day, 4 days, 1 hour after last dose
From the text: The Gel Drop of Compound-I was applied to eyes of Dutch-belted rabbits.

[13] = test system: HUVECs; assay: Inhibition of VEGF-stimulated mitogenesis in HUVECs; assay type: cell-based; conditions: Homo sapiens, HUVEC
[14] = excipient HPMC, roller speed low, media size 3 mm, particles under storage 21 days, RT
[15] = excipient Pluronic F-127, roller speed high, media size 0.8 mm
[16] = excipient Tyloxapol, milling not given
[17] = excipient Tyloxapol, roller speed high, media size 0.8 mm, particles under storage 6 days, 40° C.
[18] = excipient Tyloxapol, roller speed low, media size 3 mm

Sequence of MINK1 (Q8N4C8 whole entry, species assumed): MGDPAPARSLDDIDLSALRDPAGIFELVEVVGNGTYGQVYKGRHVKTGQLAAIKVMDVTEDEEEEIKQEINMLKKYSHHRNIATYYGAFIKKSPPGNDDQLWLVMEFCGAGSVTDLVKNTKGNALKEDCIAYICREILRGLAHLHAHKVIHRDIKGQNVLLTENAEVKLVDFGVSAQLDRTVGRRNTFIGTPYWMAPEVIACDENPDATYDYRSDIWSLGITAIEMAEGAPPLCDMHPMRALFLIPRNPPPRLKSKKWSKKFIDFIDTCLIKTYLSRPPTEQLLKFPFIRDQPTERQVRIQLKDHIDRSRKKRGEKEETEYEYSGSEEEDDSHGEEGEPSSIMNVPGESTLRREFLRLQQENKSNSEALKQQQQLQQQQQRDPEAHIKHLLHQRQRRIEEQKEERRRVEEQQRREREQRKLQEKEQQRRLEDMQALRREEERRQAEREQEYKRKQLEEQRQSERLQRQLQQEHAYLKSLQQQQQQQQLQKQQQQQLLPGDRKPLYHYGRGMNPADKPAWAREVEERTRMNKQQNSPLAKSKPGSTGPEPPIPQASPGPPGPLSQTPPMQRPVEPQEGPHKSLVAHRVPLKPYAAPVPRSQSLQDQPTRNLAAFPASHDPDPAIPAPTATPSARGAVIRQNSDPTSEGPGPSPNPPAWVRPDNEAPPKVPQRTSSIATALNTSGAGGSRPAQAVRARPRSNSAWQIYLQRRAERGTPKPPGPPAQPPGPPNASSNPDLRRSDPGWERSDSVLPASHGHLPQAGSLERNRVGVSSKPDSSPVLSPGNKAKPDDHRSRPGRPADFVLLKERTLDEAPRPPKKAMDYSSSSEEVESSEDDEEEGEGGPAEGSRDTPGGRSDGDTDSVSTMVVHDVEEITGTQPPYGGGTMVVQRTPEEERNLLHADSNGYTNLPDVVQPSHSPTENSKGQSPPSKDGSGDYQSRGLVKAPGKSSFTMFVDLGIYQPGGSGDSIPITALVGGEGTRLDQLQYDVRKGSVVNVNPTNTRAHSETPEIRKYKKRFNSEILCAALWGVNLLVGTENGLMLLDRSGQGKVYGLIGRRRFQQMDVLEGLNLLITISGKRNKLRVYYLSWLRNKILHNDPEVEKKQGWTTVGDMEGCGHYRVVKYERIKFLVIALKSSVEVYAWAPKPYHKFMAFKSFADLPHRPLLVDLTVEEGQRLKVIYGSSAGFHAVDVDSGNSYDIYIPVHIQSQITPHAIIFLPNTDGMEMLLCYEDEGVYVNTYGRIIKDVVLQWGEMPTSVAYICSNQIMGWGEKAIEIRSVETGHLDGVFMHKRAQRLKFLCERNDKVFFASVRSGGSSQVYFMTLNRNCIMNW
Sequence of EPHB-1 (P54762 18-984, species assumed): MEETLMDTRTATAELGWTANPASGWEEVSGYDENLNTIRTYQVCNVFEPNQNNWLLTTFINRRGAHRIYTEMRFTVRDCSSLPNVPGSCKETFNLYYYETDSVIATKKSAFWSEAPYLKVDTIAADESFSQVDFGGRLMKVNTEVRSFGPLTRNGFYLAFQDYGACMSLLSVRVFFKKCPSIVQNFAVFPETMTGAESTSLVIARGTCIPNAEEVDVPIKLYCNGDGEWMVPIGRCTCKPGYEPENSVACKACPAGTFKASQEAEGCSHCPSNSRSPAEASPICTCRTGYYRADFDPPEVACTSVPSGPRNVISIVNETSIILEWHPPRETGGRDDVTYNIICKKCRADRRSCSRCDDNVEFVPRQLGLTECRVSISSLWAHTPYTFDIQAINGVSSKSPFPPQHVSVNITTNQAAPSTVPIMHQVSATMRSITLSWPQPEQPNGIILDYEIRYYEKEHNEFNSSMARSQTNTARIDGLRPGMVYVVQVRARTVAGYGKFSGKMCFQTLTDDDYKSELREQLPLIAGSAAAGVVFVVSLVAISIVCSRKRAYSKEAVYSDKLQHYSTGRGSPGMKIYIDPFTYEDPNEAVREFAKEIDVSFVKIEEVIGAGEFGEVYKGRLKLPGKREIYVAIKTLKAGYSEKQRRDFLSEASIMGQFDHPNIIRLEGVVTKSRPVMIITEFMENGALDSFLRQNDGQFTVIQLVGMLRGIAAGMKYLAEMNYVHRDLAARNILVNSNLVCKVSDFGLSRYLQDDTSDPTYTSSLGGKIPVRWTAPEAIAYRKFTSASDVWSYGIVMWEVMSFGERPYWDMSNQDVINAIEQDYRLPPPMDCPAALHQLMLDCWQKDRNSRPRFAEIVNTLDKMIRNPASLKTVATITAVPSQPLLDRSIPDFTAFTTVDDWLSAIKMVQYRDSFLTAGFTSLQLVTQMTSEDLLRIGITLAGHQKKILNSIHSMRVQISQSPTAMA
Sequence of PDGFRA T674I (P16234 24-1089 T674I): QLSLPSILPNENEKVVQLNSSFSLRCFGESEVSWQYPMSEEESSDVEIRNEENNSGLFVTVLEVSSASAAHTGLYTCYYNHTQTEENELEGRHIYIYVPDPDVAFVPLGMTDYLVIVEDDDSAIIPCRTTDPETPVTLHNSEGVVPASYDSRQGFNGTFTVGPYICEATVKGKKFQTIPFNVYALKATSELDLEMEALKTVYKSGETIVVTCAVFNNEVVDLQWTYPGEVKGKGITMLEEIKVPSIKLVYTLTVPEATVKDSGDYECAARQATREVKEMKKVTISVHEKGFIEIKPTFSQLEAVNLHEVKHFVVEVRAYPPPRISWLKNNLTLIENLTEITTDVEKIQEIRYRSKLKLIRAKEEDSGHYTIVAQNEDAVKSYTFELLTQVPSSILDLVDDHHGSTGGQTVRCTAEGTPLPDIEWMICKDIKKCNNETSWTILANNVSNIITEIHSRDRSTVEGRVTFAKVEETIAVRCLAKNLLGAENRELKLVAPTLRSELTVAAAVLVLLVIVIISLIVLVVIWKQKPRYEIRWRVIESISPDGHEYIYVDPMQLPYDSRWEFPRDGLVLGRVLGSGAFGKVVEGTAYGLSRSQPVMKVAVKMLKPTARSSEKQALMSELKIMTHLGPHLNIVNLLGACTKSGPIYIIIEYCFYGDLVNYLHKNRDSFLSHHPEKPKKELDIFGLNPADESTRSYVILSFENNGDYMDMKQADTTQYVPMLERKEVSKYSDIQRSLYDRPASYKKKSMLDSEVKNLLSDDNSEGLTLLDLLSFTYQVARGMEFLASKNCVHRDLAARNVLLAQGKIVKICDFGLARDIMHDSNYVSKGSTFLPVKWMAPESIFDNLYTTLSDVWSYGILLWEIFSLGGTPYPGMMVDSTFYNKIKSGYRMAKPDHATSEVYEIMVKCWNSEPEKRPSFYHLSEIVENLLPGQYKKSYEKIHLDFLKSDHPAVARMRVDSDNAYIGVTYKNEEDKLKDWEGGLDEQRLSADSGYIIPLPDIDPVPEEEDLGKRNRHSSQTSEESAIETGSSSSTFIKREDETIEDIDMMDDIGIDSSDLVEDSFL
Sequence of KDR (VEGFR-2) (P35968 20-1356): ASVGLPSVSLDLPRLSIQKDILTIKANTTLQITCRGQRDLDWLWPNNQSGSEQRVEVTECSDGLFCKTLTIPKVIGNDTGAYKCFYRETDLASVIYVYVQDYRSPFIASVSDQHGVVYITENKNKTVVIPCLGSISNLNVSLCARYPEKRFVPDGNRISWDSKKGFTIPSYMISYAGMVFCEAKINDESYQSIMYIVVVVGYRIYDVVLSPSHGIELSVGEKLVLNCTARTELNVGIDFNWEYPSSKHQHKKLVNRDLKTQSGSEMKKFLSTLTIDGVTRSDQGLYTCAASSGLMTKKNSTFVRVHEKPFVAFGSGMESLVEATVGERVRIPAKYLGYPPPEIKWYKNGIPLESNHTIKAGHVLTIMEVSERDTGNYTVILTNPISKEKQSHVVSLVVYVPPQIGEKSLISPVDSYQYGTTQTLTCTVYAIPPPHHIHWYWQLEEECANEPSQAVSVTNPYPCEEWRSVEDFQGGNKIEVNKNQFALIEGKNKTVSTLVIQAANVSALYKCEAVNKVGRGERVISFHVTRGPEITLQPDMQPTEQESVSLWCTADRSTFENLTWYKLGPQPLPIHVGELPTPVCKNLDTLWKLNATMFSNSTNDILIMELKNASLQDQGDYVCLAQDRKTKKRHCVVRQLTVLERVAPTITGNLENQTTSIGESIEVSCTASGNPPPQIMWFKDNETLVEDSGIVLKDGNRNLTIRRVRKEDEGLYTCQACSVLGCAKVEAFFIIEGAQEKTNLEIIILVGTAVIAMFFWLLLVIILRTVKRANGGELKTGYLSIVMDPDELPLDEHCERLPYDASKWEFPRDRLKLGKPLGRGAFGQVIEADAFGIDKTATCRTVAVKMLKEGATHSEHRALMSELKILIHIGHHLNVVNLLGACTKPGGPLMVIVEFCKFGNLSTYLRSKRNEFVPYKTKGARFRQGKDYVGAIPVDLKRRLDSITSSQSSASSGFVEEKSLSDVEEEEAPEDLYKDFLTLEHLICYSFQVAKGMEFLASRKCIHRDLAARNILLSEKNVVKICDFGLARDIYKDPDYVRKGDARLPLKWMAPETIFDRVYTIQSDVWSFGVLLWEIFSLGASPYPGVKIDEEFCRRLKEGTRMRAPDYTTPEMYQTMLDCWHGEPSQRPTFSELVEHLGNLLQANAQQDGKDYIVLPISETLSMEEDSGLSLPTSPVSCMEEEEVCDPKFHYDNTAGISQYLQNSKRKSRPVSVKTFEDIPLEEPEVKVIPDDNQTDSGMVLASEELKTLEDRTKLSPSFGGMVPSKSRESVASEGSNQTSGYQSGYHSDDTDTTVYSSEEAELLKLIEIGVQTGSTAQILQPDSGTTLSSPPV

Cl.NC(=O)c1c(OCc2c(F)cc(Br)cc2F)nsc1NC(=O)NCCCCN1CCCC1 [Compound-I, 3-[(4-bromo-2,6-difluorophenyl)methoxy]-5-[[[[4-(1-pyrrolidinyl)butyl]amino]carbonyl]amino]-4-isothiazolecarboxamide hydrochloride]
inhibition at 1 µM [1]: 81% | concentration at 24 h ([2]; Dutch-Belted, rabbit, central choroid, topical, 30 μL bilateral, q.d. groups 5b, 6b, 24 hr after first daily dose day 4): 194 nM | concentration at 1 h ([2]; Dutch-Belted, rabbit, central choroid, topical, 30 μL bilateral, read-out: Average Concentration Central Choroid): 203 nM | concentration at 1 h ([2]; Dutch-Belted, rabbit, central retina, topical, 30 μL bilateral, read-out: Average Concentration Central Retina): 48.1 nM | Average Concentration Central Retina ([2]; q.d. groups 5b, 6b, 24 hr after first daily dose day 4): <LLOQ | Growth of human tumor xenographs [3]: inhibit | inhibition at 1 µM [4]: 100% | PSD (Particle Size Distribution) Mean [5, 14]: ~450 nm | PSD (Particle Size Distribution) Median [5, 14]: ~170 nm | PSD (Particle Size Distribution) Mean [5, 15]: ~100 nm | PSD (Particle Size Distribution) Median [5, 15]: ~100 nm | PSD (Particle Size Distribution) Mean [5, 16]: ~110 nm | PSD (Particle Size Distribution) Median [5, 16]: ~110 nm | PSD (Particle Size Distribution) Mean [5, 17]: ~120 nm | PSD (Particle Size Distribution) Median [5, 17]: ~110 nm | PSD (Particle Size Distribution) Mean [5, 18]: ~8500 nm | PSD (Particle Size Distribution) Median [5, 18]: ~6700 nm | inhibition at 1 µM [6]: 86% | Mean % Inhibition at 300 nM Compound-I [7]: completely inhibited | Microscopic evaluation of eyes ([8]; 0.3% w/v Tris-based suspension twice daily for 30 days): considered normal | Findings attributed to test-article or vehicle ([8]; 0.6% cyclodextrin-based solution, 30 days topical ocular dosing): no untoward findings | concentration at 29 days ([8]; rabbit, central choroid, read-out: Central Choroid [Compound I]): 340 to 496 nM | concentration at 29 days ([8]; rabbit, cornea, read-out: Cornea [Compound I]): 236000 to 260000 nM | Retinal function (full-field electroretinograms) ([8]; all test article groups): normal | Cornea concentration above which ocular side effects were more consistently observed ([8]; discomfort, inflammation, corneal thinning): exceeded 100 μM | Corneal tissue exposure ([8]; ophthalmic gel drops, topical ocular dosing): ≥ 100 µM | Corneal concentration, Gel Drop compared to Tris-based suspensions ([8]; rabbit, in vivo): fifty-fold to hundred-fold higher | Corneal concentration, Gel Drop compared to cyclodextrin based solution ([8]; rabbit, in vivo): five-fold to fifteen-fold higher | Ocular tolerability (clinical ophthalmic examinations) ([8]; rabbit, in vivo): well tolerated | Reduction of corneal exposure versus Gel Drop ([8]; suspension-based and cyclodextrin formulations): 10-100 × | Reduction in corneal concentrations, cyclodextrin-based solution versus equimolar Gel Drop ([8]; topical ocular dosing 1 to 30 days, hydrochloride): ~10 fold | Pathologic retinal and choroidal neovascularization [9]: significant inhibition | inhibition at 1 µM [10]: 101% | inhibition at 1 µM [11]: 83% | concentration at 1 h ([12]; aqueous humor (AH), read-out: Mean [AH]): 50.9 nM | concentration at 1 h ([12]; plasma, read-out: [plasma]): 12.5 nM | IC50 [13]: 14.1 nM and 0.008 µg/mL
